Results taken from ChEMBL document CHEMBL3414499, “Characterization of two distinct structural classes of selective aldehyde dehydrogenase 1A1 inhibitors” (J Med Chem, 2015).
Activity calls are given as the source filed them. The rule behind the calls is not given here.

Experiments:
[1] = target: T1, Aldehyde dehydrogenase 1A1 (Homo sapiens, UniProt P00352); experiment: Inhibition of recombinant human ALDH1A1 using propionaldehyde as substrate preincubated for 2 mins with NAD+ followed by substrate addition by UV-Vis spectrophotometric analysis
T1 sequence (P00352 whole entry): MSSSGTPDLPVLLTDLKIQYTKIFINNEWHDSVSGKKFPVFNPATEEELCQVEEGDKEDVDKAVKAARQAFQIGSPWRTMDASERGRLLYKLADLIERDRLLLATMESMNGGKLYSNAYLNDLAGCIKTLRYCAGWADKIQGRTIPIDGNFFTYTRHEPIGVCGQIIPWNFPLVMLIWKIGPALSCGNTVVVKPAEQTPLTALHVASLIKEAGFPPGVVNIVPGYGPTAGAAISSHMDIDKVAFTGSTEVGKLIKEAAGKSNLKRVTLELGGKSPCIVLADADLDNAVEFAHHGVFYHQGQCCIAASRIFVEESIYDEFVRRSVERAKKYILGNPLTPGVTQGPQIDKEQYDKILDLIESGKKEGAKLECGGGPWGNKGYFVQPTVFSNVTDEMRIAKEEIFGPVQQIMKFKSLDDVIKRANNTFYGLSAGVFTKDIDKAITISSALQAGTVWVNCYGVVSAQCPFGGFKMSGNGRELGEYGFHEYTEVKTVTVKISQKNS

[2] = target: T2, Aldehyde dehydrogenase X, mitochondrial (Homo sapiens, UniProt P30837); experiment: Inhibition of recombinant human ALDH1B1 using propionaldehyde as substrate preincubated for 2 mins with NAD+ followed by substrate addition by UV-Vis spectrophotometric analysis
T2 sequence (P30837 whole entry): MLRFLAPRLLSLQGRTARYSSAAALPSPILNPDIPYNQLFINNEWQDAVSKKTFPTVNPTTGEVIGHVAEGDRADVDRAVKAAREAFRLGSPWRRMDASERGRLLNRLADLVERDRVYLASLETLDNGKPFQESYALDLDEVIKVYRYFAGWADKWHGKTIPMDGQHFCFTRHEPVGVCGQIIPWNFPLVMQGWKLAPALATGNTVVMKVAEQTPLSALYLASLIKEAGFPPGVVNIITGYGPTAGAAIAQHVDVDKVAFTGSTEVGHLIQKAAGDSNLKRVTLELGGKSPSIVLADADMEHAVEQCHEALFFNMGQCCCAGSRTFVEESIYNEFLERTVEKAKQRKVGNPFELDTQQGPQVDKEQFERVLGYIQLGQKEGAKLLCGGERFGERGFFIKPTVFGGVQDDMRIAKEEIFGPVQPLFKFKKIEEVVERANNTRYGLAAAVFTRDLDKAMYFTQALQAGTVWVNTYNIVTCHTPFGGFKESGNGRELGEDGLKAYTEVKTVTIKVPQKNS

[3] = target: T3, Retinaldehyde dehydrogenase 3 (Homo sapiens) (UniProt P47895); experiment: Activation of recombinant human ALDH1A3 using propionaldehyde as substrate at 20 uM preincubated for 2 mins with NAD+ followed by substrate addition by UV-Vis spectrophotometric analysis
T3 sequence (whole entry): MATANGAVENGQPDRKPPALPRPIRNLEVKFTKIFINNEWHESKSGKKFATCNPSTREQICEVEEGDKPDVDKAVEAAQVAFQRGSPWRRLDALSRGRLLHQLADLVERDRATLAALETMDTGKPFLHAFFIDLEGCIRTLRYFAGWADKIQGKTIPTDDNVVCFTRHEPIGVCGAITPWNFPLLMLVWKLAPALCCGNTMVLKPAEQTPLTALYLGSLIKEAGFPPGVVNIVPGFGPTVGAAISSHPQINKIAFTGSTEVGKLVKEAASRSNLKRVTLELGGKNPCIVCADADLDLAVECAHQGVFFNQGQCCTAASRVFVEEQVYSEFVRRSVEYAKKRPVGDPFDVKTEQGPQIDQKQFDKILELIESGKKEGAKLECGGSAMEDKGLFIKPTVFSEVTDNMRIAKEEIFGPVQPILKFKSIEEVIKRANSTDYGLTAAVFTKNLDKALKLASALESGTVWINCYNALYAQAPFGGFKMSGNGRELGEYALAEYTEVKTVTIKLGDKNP

[4] = target: T3, Retinaldehyde dehydrogenase 3 (Homo sapiens); experiment: Activation of recombinant human ALDH1A3 using propionaldehyde as substrate at 100 uM preincubated for 2 mins with NAD+ followed by substrate addition by UV-Vis spectrophotometric analysis
[5] = target: T4, Retinal dehydrogenase 2 (Homo sapiens, UniProt O94788); experiment: Inhibition of recombinant human ALDH1A2 using propionaldehyde as substrate preincubated for 2 mins with NAD+ followed by substrate addition by UV-Vis spectrophotometric analysis
T4 sequence (O94788 whole entry): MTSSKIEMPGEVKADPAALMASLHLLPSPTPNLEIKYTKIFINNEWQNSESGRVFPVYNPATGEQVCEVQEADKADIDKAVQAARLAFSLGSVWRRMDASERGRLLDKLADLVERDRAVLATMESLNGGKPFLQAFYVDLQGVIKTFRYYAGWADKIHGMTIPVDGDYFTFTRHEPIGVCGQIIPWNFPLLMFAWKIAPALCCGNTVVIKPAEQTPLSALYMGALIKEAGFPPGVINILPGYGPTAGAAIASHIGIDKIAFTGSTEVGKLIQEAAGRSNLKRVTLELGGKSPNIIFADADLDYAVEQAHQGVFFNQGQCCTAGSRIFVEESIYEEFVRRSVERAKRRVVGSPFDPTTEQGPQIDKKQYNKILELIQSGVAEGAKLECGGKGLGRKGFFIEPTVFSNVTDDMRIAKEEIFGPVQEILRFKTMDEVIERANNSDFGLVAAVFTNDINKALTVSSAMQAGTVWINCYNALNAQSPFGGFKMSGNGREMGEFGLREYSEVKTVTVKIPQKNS

[6] = target: T5, Retinal dehydrogenase 2 (Homo sapiens) (UniProt O94788); experiment: Inhibition of recombinant human ALDH1A2 using propionaldehyde as substrate at 100 uM preincubated for 2 mins with NAD+ followed by substrate addition by UV-Vis spectrophotometric analysis
T5 sequence (whole entry): T4 sequence (O94788 whole entry)

[7] = target: T3, Retinaldehyde dehydrogenase 3 (Homo sapiens); experiment: Inhibition of recombinant human ALDH1A3 using propionaldehyde as substrate at 100 uM preincubated for 2 mins with NAD+ followed by substrate addition by UV-Vis spectrophotometric analysis

| Structure (SMILES) | IC50 [1] | IC50 [2] | Activity [3] | Activity [4] | IC50 [5] | inhibition [6] | inhibition [7] |
| --- | --- | --- | --- | --- | --- | --- | --- |
| CC(C)CCn1c(CN(C)Cc2ccccc2)nc2c1c(=O)n(C)c(=O)n2C | 3.4 µM | > 100 µM | < 10% | Active | > 100 µM |  |  |
| CCCCn1c(CN2CCN(c3ccc(OC)cc3)CC2)nc2c1c(=O)n(C)c(=O)n2C | > 20 µM | > 100 µM | < 10% |  |  | inactive |  |
| CCCCn1c(Oc2ccc(C(=O)OC)cc2)nc2c1c(=O)n(C)c(=O)n2C | 5.2 µM |  | < 10% | Active | > 100 µM |  |  |
| Cn1c(=O)c2c(nc(SCC(N)=O)n2Cc2ccccc2F)n(C)c1=O | 14 µM |  | < 10% | Active |  | inactive |  |
| CC(C)CCn1c(CN2CCN(C(=O)c3ccco3)CC2)nc2c1c(=O)n(C)c(=O)n2C |  |  | < 10% | Active |  |  |  |
| CC(C)CCn1c(CN2CCOCC2)nc2c1c(=O)n(C)c(=O)n2C |  | > 100 µM | < 10% |  |  | inactive | inactive |
| Cn1c(=O)c2c(nc(CN3CCC(C(N)=O)CC3)n2CCCc2ccccc2)n(C)c1=O |  | > 100 µM | < 10% |  |  | inactive | inactive |

The next lines start with the values.

| IC50 [1] | IC50 [2] | Activity [3] | Activity [4] | IC50 [5] | inhibition [6] | inhibition [7] | Structure (SMILES) |
| --- | --- | --- | --- | --- | --- | --- | --- |
| > 20 µM |  | < 10% | Active |  |  |  | Cn1c(=O)c2c(nc(N3CCOCC3)n2Cc2ccccc2F)n(C)c1=O |
| > 20 µM | > 100 µM | < 10% |  | > 100 µM |  |  | CCCCn1c(CN2CCN(c3cccc(Cl)c3)CC2)nc2c1c(=O)n(C)c(=O)n2C |
| > 20 µM |  | < 10% | Active | > 100 µM |  |  | Cn1c(=O)c2c(nc(N3CCN(Cc4ccccc4)CC3)n2Cc2cccc(Cl)c2)n(C)c1=O |
|  |  | < 10% |  |  | inactive | inactive | CCN1CCN(Cc2nc3c(c(=O)n(C)c(=O)n3C)n2CC(=O)c2ccccc2)CC1 |
